Measurements: patent publication US9403813B2, “Azetidine amide derivatives as orexin receptor antagonists” (ACTELION PHARMACEUTICALS LTD, priority 2013, dated 2016)

Columns and labels:
[1] = molecular target: human orexin-1 receptor (Homo sapiens (Human), UniProt O43613); assay: Intracellular calcium measurements (FLIPR), antagonism of orexin-A response; format: cell-based; settings: CHO cells expressing human orexin-1 receptor, 3 nM orexin-A, geometric mean if determined several times, read-out: IC50 OX1
human orexin-1 receptor, sequence (O43613 whole entry): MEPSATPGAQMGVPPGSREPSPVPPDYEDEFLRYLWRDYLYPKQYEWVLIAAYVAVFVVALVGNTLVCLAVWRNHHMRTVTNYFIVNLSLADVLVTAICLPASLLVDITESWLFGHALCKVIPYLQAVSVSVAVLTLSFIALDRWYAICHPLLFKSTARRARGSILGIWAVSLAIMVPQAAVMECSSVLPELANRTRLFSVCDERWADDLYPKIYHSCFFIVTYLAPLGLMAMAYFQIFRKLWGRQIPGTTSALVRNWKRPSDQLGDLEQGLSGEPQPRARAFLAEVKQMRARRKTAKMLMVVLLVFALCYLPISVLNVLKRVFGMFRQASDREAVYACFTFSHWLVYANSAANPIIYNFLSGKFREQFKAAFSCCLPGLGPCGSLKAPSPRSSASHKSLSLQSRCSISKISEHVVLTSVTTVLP
Method: (§1) Antagonistic activities on both orexin receptors have been measured for each example compound using the following procedure:
(§2) In Vitro Assay: Intracellular Calcium Measurements:
(§3) Chinese hamster ovary (CHO) cells expressing the human orexin-1 receptor and the human orexin-2 receptor, respectively, are grown in culture medium (Ham F-12 with L-Glutamine) containing 300 μg/mL G418, 100 U/mL penicillin, 100 μg/mL streptomycin and 10% heat inactivated fetal calf serum (FCS). The cells are seeded at 20,000 cells/well into 384-well black clear bottom sterile plates (Greiner). The seeded plates are incubated overnight at 37° C. in 5% CO2. Human orexin-A as an agonist is prepared as 1 mM stock solution in MeOH:water (1:1), diluted in HBSS containing 0.1% bovine serum albumin (BSA), NaHCO3: 0.375 g/L and 20 mM HEPES for use in the assay at a final concentration of 3 nM.
(§4) Antagonists are prepared as 10 mM stock solution in DMSO, then diluted in 384-well plates using DMSO followed by a transfer of the dilutions into in HBSS containing 0.1% bovine serum albumin (BSA), NaHCO3: 0.375 g/L and 20 mM HEPES. On the day of the assay, 50 μL of staining buffer (HBSS containing 1% FCS, 20 mM HEPES, NaHCO3: 0.375 g/L, 5 mM probenecid (Sigma) and 3 μM of the fluorescent calcium indicator fluo-4 AM (1 mM stock solution in DMSO, containing 10% pluronic) is added to each well. The 384-well cell-plates are incubated for 50 min at 37° C. in 5% CO2 followed by equilibration at rt for 30 min before measurement.
(§5) Within the Fluorescent Imaging Plate Reader (FLIPR Tetra, Molecular Devices), antagonists are added to the plate in a volume of 10 μL/well, incubated for 120 min and finally 10 μL/well of agonist is added. Fluorescence is measured for each well at 1 second intervals, and the height of each fluorescence peak is compared to the height of the fluorescence peak induced by 3 nM orexin-A with vehicle in place of antagonist. The IC50 value (the concentration of compound needed to inhibit 50% of the agonistic response) is determined and may be normalized using the obtained IC50 value of an on-plate reference compound. Optimized conditions were achieved by adjustment of pipetting speed and cell splitting regime. The calculated IC50 values may fluctuate depending on the daily cellular assay performance. Fluctuations of this kind are known to those skilled in the art. In the case where IC50 values have been determined several times for the same compound, the geometric mean has been given.

[2] = molecular target: human orexin-2 receptor (Homo sapiens (Human), UniProt O43614); assay: as above; format: cell-based; settings: CHO cells expressing human orexin-2 receptor, 3 nM orexin-A, geometric mean if determined several times, read-out: IC50 OX2
human orexin-2 receptor, sequence (O43614 whole entry): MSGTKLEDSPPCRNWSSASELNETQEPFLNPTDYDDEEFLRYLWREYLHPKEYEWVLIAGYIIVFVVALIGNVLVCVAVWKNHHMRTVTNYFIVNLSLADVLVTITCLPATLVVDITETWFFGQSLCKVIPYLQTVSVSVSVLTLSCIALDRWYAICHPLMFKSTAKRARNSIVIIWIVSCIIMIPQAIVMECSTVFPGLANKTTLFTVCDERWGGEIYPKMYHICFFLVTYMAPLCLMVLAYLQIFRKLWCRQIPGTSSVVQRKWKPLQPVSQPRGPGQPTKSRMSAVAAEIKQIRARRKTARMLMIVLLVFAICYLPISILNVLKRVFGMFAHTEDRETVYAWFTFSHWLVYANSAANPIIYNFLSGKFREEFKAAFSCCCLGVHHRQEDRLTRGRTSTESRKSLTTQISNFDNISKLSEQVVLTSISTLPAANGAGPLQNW
Method: as §1, §2, §3, §4, §5

IC50 [1] [µM]	IC50 [2] [µM]	Structure (SMILES)
1.02	0.115	Cc1cccc(-n2nccn2)c1C(=O)N1CC[C@H]1c1nc(-c2ccccc2OC(F)(F)F)no1 [Example 46, (2-Methyl-6-[1,2,3]triazol-2-yl-phenyl)-{(S)-2-[3-(2-trifluoromethoxy-phenyl)-[1,2,4]oxadiazol-5-yl]-azetidin-1-yl}-methanone]
0.618	0.727	O=C(c1cc(OC(F)(F)F)ccc1-n1nccn1)N1CC[C@H]1c1nc(-c2ccccc2OC(F)(F)F)no1 [Example 47, (2-[1,2,3]Triazol-2-yl-5-trifluoromethoxy-phenyl)-{(S)-2-[3-(2-trifluoromethoxy-phenyl)-[1,2,4]oxadiazol-5-yl]-azetidin-1-yl}-methanone]
0.96	0.239	O=C(c1cc(C(F)(F)F)ccc1-n1nccn1)N1CC[C@H]1c1nc(-c2ccccc2OC(F)(F)F)no1 [Example 48, (2-[1,2,3]Triazol-2-yl-5-trifluoromethyl-phenyl)-{(S)-2-[3-(2-trifluoromethoxy-phenyl)-[1,2,4]oxadiazol-5-yl]-azetidin-1-yl}-methanone]
0.223	0.305	Cc1cccc(-c2ocnc2C(=O)N2CC[C@H]2c2nc(-c3ccccc3OC(F)(F)F)no2)c1 [Example 49, (5-m-Tolyl-oxazol-4-yl)-{(S)-2-[3-(2-trifluoromethoxy-phenyl)-[1,2,4]oxadiazol-5-yl]-azetidin-1-yl}-methanone]
0.583	0.091	O=C(c1ccccc1-n1nccn1)N1CC[C@H]1c1nc(-c2ccccc2OC(F)(F)F)no1 [Example 50, (2-[1,2,3]Triazol-2-yl-phenyl)-{(S)-2-[3-(2-trifluoromethoxy-phenyl)-[1,2,4]oxadiazol-5-yl]-azetidin-1-yl}-methanone]
0.276	0.342	Cc1cccc(-c2scnc2C(=O)N2CC[C@H]2c2nc(-c3ccccc3OC(F)(F)F)no2)c1 [Example 51, (5-m-Tolyl-thiazol-4-yl)-{(S)-2-[3-(2-trifluoromethoxy-phenyl)-[1,2,4]oxadiazol-5-yl]-azetidin-1-yl}-methanone]
0.357	0.309	Cc1cccc(-c2oc(C)nc2C(=O)N2CC[C@H]2c2nc(-c3ccccc3OC(F)(F)F)no2)c1 [Example 52, (2-Methyl-5-m-tolyl-oxazol-4-yl)-{(S)-2-[3-(2-trifluoromethoxy-phenyl)-[1,2,4]oxadiazol-5-yl]-azetidin-1-yl}-methanone]
1.23	1.19	Cc1onc(-c2ccccc2Cl)c1C(=O)N1CC[C@H]1c1nc(-c2ccccc2OC(F)(F)F)no1 [Example 53, [3-(2-Chloro-phenyl)-5-methyl-isoxazol-4-yl]-{(S)-2-[3-(2-trifluoromethoxy-phenyl)-[1,2,4]oxadiazol-5-yl]-azetidin-1-yl}-methanone]
0.129	0.01	O=C(c1ccccc1-c1ccccc1)N1CC[C@H]1c1nc(-c2ccccc2OC(F)(F)F)no1 [Example 54, Biphenyl-2-yl-{(S)-2-[3-(2-trifluoromethoxy-phenyl)-[1,2,4]oxadiazol-5-yl]-azetidin-1-yl}-methanone]
1.2	0.218	Cc1nc(C(=O)N2CC[C@H]2c2nc(-c3cccc(Cl)c3C)no2)c(-c2ccccc2F)s1 [Example 55, {(S)-2-[3-(3-Chloro-2-methyl-phenyl)-[1,2,4]oxadiazol-5-yl]-azetidin-1-yl}-[5-(2-fluoro-phenyl)-2-methyl-thiazol-4-yl]-methanone]
0.436	0.28	Cc1cccc(-c2sc(C)nc2C(=O)N2CC[C@H]2c2nc(-c3cccc(Cl)c3C)no2)c1 [Example 56, {(S)-2-[3-(3-Chloro-2-methyl-phenyl)-[1,2,4]oxadiazol-5-yl]-azetidin-1-yl}-(2-methyl-5-m-tolyl-thiazol-4-yl)-methanone]
0.089	0.004	Cc1ccc(-c2ccccc2)c(C(=O)N2CC[C@H]2c2nc(-c3cccc(Cl)c3C)no2)c1 [Example 57, {(S)-2-[3-(3-Chloro-2-methyl-phenyl)-[1,2,4]oxadiazol-5-yl]-azetidin-1-yl}-(4-methyl-biphenyl-2-yl)-methanone]
1.03	0.133	Cc1nc(C(=O)N2CC[C@H]2c2nc(-c3cccc(Cl)c3C)no2)c(-c2ccccc2)s1 [Example 58, {(S)-2-[3-(3-Chloro-2-methyl-phenyl)-[1,2,4]oxadiazol-5-yl]-azetidin-1-yl}-(2-methyl-5-phenyl-thiazol-4-yl)-methanone]
0.043	0.007	Cc1c(Cl)cccc1-c1noc([C@@H]2CCN2C(=O)c2nc(N(C)C)sc2-c2ccccc2)n1 [Example 59, {(S)-2-[3-(3-Chloro-2-methyl-phenyl)-[1,2,4]oxadiazol-5-yl]-azetidin-1-yl}-(2-dimethylamino-5-phenyl-thiazol-4-yl)-methanone]
1.2	0.5	Cc1c(Cl)cccc1-c1noc([C@@H]2CCN2C(=O)c2ncsc2-c2ccccc2)n1 [Example 60, {(S)-2-[3-(3-Chloro-2-methyl-phenyl)-[1,2,4]oxadiazol-5-yl]-azetidin-1-yl}-(5-phenyl-thiazol-4-yl)-methanone]
0.993	0.367	Cc1c(Cl)cccc1-c1noc([C@@H]2CCN2C(=O)c2ncsc2-c2cccc(Cl)c2)n1 [Example 61, {(S)-2-[3-(3-Chloro-2-methyl-phenyl)-[1,2,4]oxadiazol-5-yl]-azetidin-1-yl}-[5-(3-chloro-phenyl)-thiazol-4-yl]-methanone]
0.562	0.17	Cc1ccc(-c2sc(C)nc2C(=O)N2CC[C@H]2c2nc(-c3cccc(Cl)c3C)no2)cc1 [Example 62, {(S)-2-[3-(3-Chloro-2-methyl-phenyl)-[1,2,4]oxadiazol-5-yl]-azetidin-1-yl}-(2-methyl-5-p-tolyl-thiazol-4-yl)-methanone]
1.13	0.448	Cc1nc(C(=O)N2CC[C@H]2c2nc(-c3cccc(Cl)c3C)no2)c(-c2ccccc2C)s1 [Example 63, {(S)-2-[3-(3-Chloro-2-methyl-phenyl)-[1,2,4]oxadiazol-5-yl]-azetidin-1-yl}-(2-methyl-5-o-tolyl-thiazol-4-yl)-methanone]
2.73	0.676	Cc1c(Cl)cccc1-c1noc([C@@H]2CCN2C(=O)c2cc(OC(F)(F)F)ccc2-n2nccn2)n1 [Example 65, {(S)-2-[3-(3-Chloro-2-methyl-phenyl)-[1,2,4]oxadiazol-5-yl]-azetidin-1-yl}-(2-[1,2,3]triazol-2-yl-5-trifluoromethoxy-phenyl)-methanone]
1.6	0.39	Cc1c(Cl)cccc1-c1noc([C@@H]2CCN2C(=O)c2cc(C(F)(F)F)ccc2-n2nccn2)n1 [Example 66, {(S)-2-[3-(3-Chloro-2-methyl-phenyl)-[1,2,4]oxadiazol-5-yl]-azetidin-1-yl}-(2-[1,2,3]triazol-2-yl-5-trifluoromethyl-phenyl)-methanone]
0.437	0.631	Cc1cccc(-c2ocnc2C(=O)N2CC[C@H]2c2nc(-c3cccc(Cl)c3C)no2)c1 [Example 67, {(S)-2-[3-(3-Chloro-2-methyl-phenyl)-[1,2,4]oxadiazol-5-yl]-azetidin-1-yl}-(5-m-tolyl-oxazol-4-yl)-methanone]
1.09	0.074	Cc1c(Cl)cccc1-c1noc([C@@H]2CCN2C(=O)c2ccccc2-n2nccn2)n1 [Example 68, {(S)-2-[3-(3-Chloro-2-methyl-phenyl)-[1,2,4]oxadiazol-5-yl]-azetidin-1-yl}-(2-[1,2,3]triazol-2-yl-phenyl)-methanone]
0.864	0.24	Cc1cccc(-c2scnc2C(=O)N2CC[C@H]2c2nc(-c3cccc(Cl)c3C)no2)c1 [Example 69, {(S)-2-[3-(3-Chloro-2-methyl-phenyl)-[1,2,4]oxadiazol-5-yl]-azetidin-1-yl}-(5-m-tolyl-thiazol-4-yl)-methanone]

Structure (SMILES)	IC50 [1] [µM]	IC50 [2] [µM]
Cc1cccc(-n2nccn2)c1C(=O)N1CC[C@H]1c1nc(-c2cccc(Cl)c2C)no1 [Example 64, {(S)-2-[3-(3-Chloro-2-methyl-phenyl)-[1,2,4]oxadiazol-5-yl]-azetidin-1-yl}-(2-methyl-6-[1,2,3]triazol-2-yl-phenyl)-methanone]	0.812	0.069
